Toxic doses and inconclusive results are not listed. Cut-off read from the data, not from the text of the source: active = T/C of 150% or more; inactive = T/C below 125%.
Tested on: L1210 leukemia ip in BDF1 mice, survival T/C
Experiment: NCI In Vivo Anticancer Drug Screen. Data for tumor model L1210 Leukemia (intraperitoneal) in B6D2F1 (BDF1) mice
Conditions: endpoint: mean survival time, higher = longer survival
Outline: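 Survival endpoint. Drug-treated group vs vehicle group, expressed as T divided by C. Tumor passaged by transplantation.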

Measured: T/C

CC1C(C)(C)C1(Cl)Cl (stereo unspecified)
inactive: dose: 50.0 mg/kg/injection, schedule: Q01DX009 (ip), vehicle: saline sonified 92 % of control | dose: 100.0 mg/kg/injection, schedule: Q01DX009 (ip), vehicle: saline sonified 92 % of control | dose: 200.0 mg/kg/injection, schedule: Q01DX009 (ip), vehicle: saline sonified 101 % of control

c1ccc2c(c1)CCCN2
inactive: dose: 100.0 mg/kg/injection, schedule: Q01DX001 (ip), vehicle: saline 99 % of control | dose: 200.0 mg/kg/injection, schedule: Q01DX001 (ip), vehicle: saline 89 % of control | dose: 400.0 mg/kg/injection, schedule: Q01DX001 (ip), vehicle: saline 89 % of control

Source: PubChem BioAssay AID248 (DTP/NCI, 2004)
